Source: US20050288299A1, “Azaindole derivatives as inhibitors of p38 kinase” (priority 2002, published 2005)
pIC50: −log10 of the molar value.

Target: p38α kinase (Homo sapiens, UniProt Q16539)
Test: p38α Flash Plate Assay (p38 kinase inhibition)
Format: biochemical
Settings: in vitro; 150 μM ATP, 0.05 mM biotinylated peptide substrate, 5 nM enzyme, 60 minute incubation at 30° Celsius; read-out: P38 α-FLASHPLATE IC50
Experimental: Assay for p38 Kinase Inhibition—p38α Flash Plate Assay
The compounds to be tested were solubilized in DMSO and diluted with water to the desired concentrations. The p38 kinase was diluted to 20 nM into a buffer containing 20 mM MOPS, pH 7.0, 25 mM beta-glycerol phosphate, 2 mg/ml gelatin, 0.5 mM EGTA (ethylene-bis-(oxyethylenenitrilo)-tetraacetic acid), and 4 mM dithiothreitol (DTT).
The reaction was carried out by mixing 20 μl test compound with 10 μl of a substrate cocktail containing 0.2 mM biotinylated peptide substrate and 0.6 mM ATP (+100 μCi/ml gamma-^33P-ATP) in a 5× assay buffer. The reaction was initiated by the addition of 10 μl of p38 kinase. Final assay conditions were 25 mM MOPS, pH 7.0, 26.25 mM beta-glycerol phosphate, 80 mM KCl, 22 mM MgCl2, 3 mM MgSO4, 1 mg/ml gelatin, 0.625 mM EGTA, 1 mM DTT, 0.05 mM peptide substrate, 150 μM ATP, and 5 nM enzyme. After a 60 minute incubation at 30° Celsius, the reaction was stopped by the addition of 10 μl per reaction of 0.25 M phosphoric acid.
A portion of the reaction was transferred to a streptavidin-coated Flash Plate (Perkin Elmer); the Flash Plate was incubated for 60 minutes at 30° Celsius and then washed 3× with PBS containing 0.01% Tween-20.
Counts incorporated are determined on a scintillation counter. Relative enzyme activity was calculated by subtracting background counts (counts measured in the absence of enzyme) from each result, and comparing the resulting counts to those obtained in the absence of inhibitor. IC50 values were determined with curve-fitting plots available with common software packages. The IC50 was expressed as the concentration of compound which inhibited the enzyme activity by 50%.

p38α kinase, sequence (Q16539 whole entry): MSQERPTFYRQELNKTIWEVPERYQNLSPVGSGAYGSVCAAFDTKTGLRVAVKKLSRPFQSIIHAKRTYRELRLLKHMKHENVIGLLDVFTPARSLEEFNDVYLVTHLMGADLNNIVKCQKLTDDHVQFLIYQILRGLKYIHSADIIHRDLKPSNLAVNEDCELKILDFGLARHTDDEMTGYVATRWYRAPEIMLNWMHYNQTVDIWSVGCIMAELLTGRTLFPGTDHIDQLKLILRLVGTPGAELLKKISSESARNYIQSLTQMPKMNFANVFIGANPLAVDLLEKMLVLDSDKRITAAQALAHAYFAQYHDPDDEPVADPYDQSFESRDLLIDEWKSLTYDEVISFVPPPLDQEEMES

## CNC(=O)C(=O)c1c[nH]c2nc(C)c(C(=O)N3C[C@H](C)N(Cc4ccc(F)cc4)C[C@H]3C)cc12 [compound 62]
  pIC50: 7.15

## COc1nc2c(cc1C(=O)N1C[C@H](C)N(Cc3ccc(F)cc3)C[C@H]1C)c(C(=O)C(N)=O)cn2C [compound 41]
  pIC50: 7.70

## COc1nc2[nH]cc(C(=O)C(=O)N3CCCC3)c2cc1C(=O)N1C[C@H](C)N(Cc2ccc(F)cc2)C[C@H]1C [No. 5, 1-{5-[4-(4-Fluoro-benzyl)-2R,5S-dimethyl-piperazine-1-carbonyl]-6-methoxy-1H-pyrrolo[2,3-b]pyridin-3-yl}-2-pyrrolidin-1-yl-ethane-1,2-dione]
  pIC50: 7.52

## CCNC(=O)C(=O)c1c[nH]c2nc(C)c(C(=O)N3C[C@H](C)N(Cc4ccc(F)cc4)C[C@H]3C)cc12 [compound 64]
  pIC50: 7.10

## Cc1nc2[nH]cc(C(=O)C(=O)N3CCCC3)c2cc1C(=O)N1C[C@H](C)N(Cc2ccc(F)cc2)C[C@H]1C [compound 65]
  pIC50: 7.10

## CNC(=O)C(=O)c1cn(Cc2ccc(OC)cc2)c2nc(OC)c(C(=O)N3C[C@H](C)N(Cc4ccc(F)cc4)C[C@H]3C)cc12 [compound 39]
  pIC50: 6.21

## CCNC(=O)C(=O)c1cn(C)c2nc(OC)c(C(=O)N3C[C@H](C)N(Cc4ccc(F)cc4)C[C@H]3C)cc12 [compound 44]
  pIC50: 7.15

## COc1nc2[nH]cc(C(=O)C(=O)O)c2cc1C(=O)N1CCC(Cc2ccc(F)cc2)CC1 [compound 33]
  pIC50: 7.82

## CCOc1nc2[nH]cc(C(=O)C(N)=O)c2cc1C(=O)N1C[C@H](C)N(Cc2ccc(F)cc2)C[C@H]1C [compound 35]
  pIC50: 7.70

## CCNC(=O)C(=O)c1c[nH]c2nc(OC)c(C(=O)N3C[C@H](C)N(Cc4ccc(F)cc4)C[C@H]3C)cc12 [compound 47]
  pIC50: 7.70

## COc1nc2[nH]c(C)c(C(=O)C(=O)N3CCCC3)c2cc1C(=O)N1CCC(Cc2ccc(F)cc2)CC1 [compound 15]
  pIC50: 7.42

## COCn1cc(C(=O)C(=O)N2CCCC2)c2cc(C(=O)N3C[C@H](C)N(Cc4ccc(F)cc4)C[C@H]3C)c(OC)nc21 [compound 56]
  pIC50: 7.40

## CNC(=O)C(=O)c1cn(C)c2nc(C)c(C(=O)N3C[C@H](C)N(Cc4ccc(F)cc4)C[C@H]3C)cc12 [compound 61]
  pIC50: 7.05

## CONC(=O)C(=O)c1cn(C)c2nc(OC)c(C(=O)N3C[C@H](C)N(Cc4ccc(F)cc4)C[C@H]3C)cc12 [compound 50]
  pIC50: 7.40

## COc1nc2[nH]cc(C(=O)C(=O)NC3CCCC3)c2cc1C(=O)N1C[C@H](C)N(C(c2ccccc2)c2ccccc2)C[C@H]1C [compound 25]
  pIC50: 6.89

## COC(=O)C(=O)c1c[nH]c2cc(Cl)c(C(=O)N3C[C@H](C)N(Cc4ccc(F)cc4)C[C@H]3C)nc12 [compound 71]
  pIC50: 7.47

## COc1nc2c(cc1C(=O)N1C[C@H](C)N(Cc3ccc(F)cc3)C[C@H]1C)c(C(=O)C(=O)NC(C)C)cn2C [compound 49]
  pIC50: 7.22

## COc1nc2[nH]cc(C(=O)C(N)=O)c2cc1C(=O)N1C[C@H](C)N(Cc2ccc(F)cc2)C[C@H]1C [compound 30]
  pIC50: 8.00

## COc1nc2[nH]cc(C(=O)C(F)(F)F)c2cc1C(=O)N1CCC(Cc2ccc(F)cc2)CC1 [compound 26]
  pIC50: 7.02

## CNC(=O)C(=O)c1c[nH]c2nc(OC)c(C(=O)N3CCN([C@H](C)c4ccc(F)cc4)C[C@H]3C)cc12 [compound 32]
  pIC50: 7.52

## COc1cc2[nH]ccc2nc1C(=O)N1C[C@H](C)N(Cc2ccc(F)cc2)C[C@H]1C [compound 74]
  pIC50: 7.01

## Cc1nc2[nH]cc(C(=O)C(N)=O)c2cc1C(=O)N1C[C@H](C)N(Cc2ccc(F)cc2)C[C@H]1C [compound 66]
  pIC50: 7.10

## CNC(=O)C(=O)c1c[nH]c2ccc(C(=O)N3C[C@H](C)N(Cc4ccc(F)cc4)C[C@H]3C)nc12 [compound 70]
  pIC50: 6.22

## C[C@@H]1CN(Cc2ccc(F)cc2)[C@@H](C)CN1C(=O)c1ccc2[nH]ccc2n1 [compound 67]
  pIC50: 6.12

## COc1nc2[nH]cc(C(=O)C(N)=O)c2cc1C(=O)N1CCN(Cc2ccc(F)cc2)C[C@H]1C [compound 31]
  pIC50: 7.00

## COc1nc2[nH]cc(C(=O)C(=O)N3CC[C@@H](O)C3)c2cc1C(=O)N1C[C@H](C)N(Cc2ccc(F)cc2)C[C@H]1C [compound 21]
  pIC50: 8.00

## COc1nc2c(cc1C(=O)N1C[C@H](C)N(Cc3ccc(F)cc3)C[C@H]1C)c(C(=O)C(=O)N1CCCC1)cn2C [compound 46]
  pIC50: 7.30

## Cc1nc2[nH]ccc2cc1C(=O)N1C[C@H](C)N(Cc2ccc(F)cc2)C[C@H]1C [compound 40]
  pIC50: 6.38

## CNC(=O)C(=O)c1cn(COC)c2nc(OC)c(C(=O)N3C[C@H](C)N(Cc4ccc(F)cc4)C[C@H]3C)cc12 [compound 54]
  pIC50: 7.30

## COC(=O)C(=O)c1c[nH]c2ccc(C(=O)N3C[C@H](C)N(Cc4ccc(F)cc4)C[C@H]3C)nc12 [compound 68]
  pIC50: 6.12

## COc1nc2[nH]cc(C(=O)C(=O)N(C)C)c2cc1C(=O)N1C[C@H](C)N(C(c2ccccc2)c2ccccc2)C[C@H]1C [compound 22]
  pIC50: 7.15

## CCN(C)C(=O)C(=O)c1c[nH]c2nc(OC)c(C(=O)N3C[C@H](C)N(Cc4ccc(F)cc4)C[C@H]3C)cc12 [compound 20]
  pIC50: 7.92

## C[C@@H]1CN(Cc2ccc(F)cc2)[C@@H](C)CN1C(=O)c1nc2c(C(=O)C(=O)O)c[nH]c2cc1Cl [compound 72]
  pIC50: 7.85

## COCn1cc(C(=O)C(N)=O)c2cc(C(=O)N3C[C@H](C)N(Cc4ccc(F)cc4)C[C@H]3C)c(OC)nc21 [compound 53]
  pIC50: 7.52

## CCOc1nc2[nH]cc(C(=O)C(N)=O)c2cc1C(=O)N1CCC(Cc2ccc(F)cc2)CC1 [compound 37]
  pIC50: 7.17

## COCn1cc(C(=O)C(=O)N(C)C)c2cc(C(=O)N3C[C@H](C)N(Cc4ccc(F)cc4)C[C@H]3C)c(OC)nc21 [compound 55]
  pIC50: 7.70

## COc1nc2c(cc1C(=O)N1C[C@H](C)N(Cc3ccc(F)cc3)C[C@H]1C)c(C(=O)C(=O)N(C)OC)cn2C [compound 45]
  pIC50: 7.70

## CCOc1nc2[nH]cc(C(=O)C(=O)N3CCCC3)c2cc1C(=O)N1C[C@H](C)N(Cc2ccc(F)cc2)C[C@H]1C [compound 59]
  pIC50: 7.52

## CNC(=O)C(=O)c1c[nH]c2nc(OC)c(C(=O)N3C[C@H](C)N(C(c4ccccc4)c4ccccc4)C[C@H]3C)cc12 [compound 24]
  pIC50: 7.38

## CNC(=O)C(=O)c1c[nH]c2cc(OC)c(C(=O)N3C[C@H](C)N(Cc4ccc(F)cc4)C[C@H]3C)nc12 [compound 76]
  pIC50: 7.01

## COc1nc2[nH]cc(C(=O)C(=O)NC(C)C)c2cc1C(=O)N1C[C@H](C)N(Cc2ccc(F)cc2)C[C@H]1C [compound 48]
  pIC50: 7.30

## COc1nc2[nH]cc(C(=O)C(=O)N(C)C)c2cc1C(=O)N1C[C@H](C)N(Cc2ccc(F)cc2)C[C@H]1C [compound 19]
  pIC50: 8.09

## CNC(=O)C(=O)c1cn(C)c2nc(OC)c(C(=O)N3C[C@H](C)N(Cc4ccc(F)cc4)C[C@H]3C)cc12 [compound 42]
  pIC50: 7.70

## Cc1nc2[nH]cc(C(=O)C(=O)N(C)C)c2cc1C(=O)N1C[C@H](C)N(Cc2ccc(F)cc2)C[C@H]1C [compound 63]
  pIC50: 7.52

## CCOc1nc2[nH]cc(C(=O)C(=O)NC)c2cc1C(=O)N1CCC(Cc2ccc(F)cc2)CC1 [compound 36]
  pIC50: 7.19

## COc1nc2[nH]cc(C(=O)C(N)=O)c2cc1C(=O)N1CCC(Cc2ccc(F)cc2)CC1 [compound 17]
  pIC50: 7.24

## CNC(=O)C(=O)c1c[nH]c2cc(Cl)c(C(=O)N3C[C@H](C)N(Cc4ccc(F)cc4)C[C@H]3C)nc12 [compound 73]
  pIC50: 7.70

## CCOc1nc2[nH]cc(C(=O)C(=O)NC(C)C)c2cc1C(=O)N1C[C@H](C)N(Cc2ccc(F)cc2)C[C@H]1C [compound 58]
  pIC50: 7.30

## CCNC(=O)C(=O)c1c[nH]c2nc(OC)c(C(=O)N3CCC(Cc4ccc(F)cc4)CC3)cc12 [compound 16]
  pIC50: 7.41

## C[C@@H]1CN(Cc2ccc(F)cc2)[C@@H](C)CN1C(=O)c1ccc2[nH]cc(C(=O)C(=O)O)c2n1 [compound 69]
  pIC50: 6.15

## COc1nc2[nH]cc(C(=O)C(=O)N3CCCC3)c2cc1C(=O)N1C[C@H](C)N(C(c2ccccc2)c2ccccc2)C[C@H]1C [compound 23]
  pIC50: 6.92

## COc1nc2c(cc1C(=O)N1C[C@H](C)N(Cc3ccc(F)cc3)C[C@H]1C)c(C(=O)C(=O)N(C)C)cn2C [compound 43]
  pIC50: 8.00

## COc1ccc(Cn2ccc3cc(C(=O)N4C[C@H](C)N(Cc5ccc(F)cc5)C[C@H]4C)c(OC)nc32)cc1 [compound 38]
  pIC50: 5.82

## Cc1nc2c(ccn2C)cc1C(=O)N1C[C@H](C)N(Cc2ccc(F)cc2)C[C@H]1C [compound 60]
  pIC50: 6.80

## CCNC(=O)C(=O)c1cn(COC)c2nc(OC)c(C(=O)N3C[C@H](C)N(Cc4ccc(F)cc4)C[C@H]3C)cc12 [compound 51]
  pIC50: 7.22

## CCNC(=O)C(=O)c1c[nH]c2nc(OCC)c(C(=O)N3C[C@H](C)N(Cc4ccc(F)cc4)C[C@H]3C)cc12 [compound 57]
  pIC50: 7.52

## CNC(=O)C(=O)c1c[nH]c2nc(OC)c(C(=O)N3C[C@H](C)N(Cc4ccc(F)cc4)C[C@H]3C)cc12 [compound 18]
  pIC50: 7.70
